# Laboratory results as given in PMC12446476 (Nature Communications, 2025).
# Tested on: Caco-2 cell monolayers
# Method: Various controls were assessed in parallel, including atenolol (low permeability) and diclofenac (high permeability).
# The instrument operated in positive ionisation mode (ESI + ) over a m/z range of 80–1000 (n = 1 measure per sample). Data were extracted from chromatograms using calculated monoisotopic accurate masses for protonated molecular ions within 5 ppm windows.
smiles,measurement,value
Cc1c(CN(C)C(=O)/C=C/c2cnc3c(c2)N[C@H](C)[C@H](OP(=O)([O-])[O-])C(=O)N3)oc2ccccc12.[Na+].[Na+] [Debio 1453 P],Apparent permeability (Papp),negligible
same,permeability through transwells A → B,31.8 ×10⁻⁶ cm/s
